What all share (type): cell-based
Experiment [1] has as its system MLE-12 cells. Briefly: Cytosolic lipid ROS (BODIPY 581/591 C11) after RSL3, Experimental Example 3-1. Conditions: MLE-12, 1 μM RSL3, 2 hours; tested 0.01-10 μM. How it is done:
(§1) Experimental Example 3-1: To confirm the protective effect against cytosolic lipid reactive oxygen species in lung epithelial cells, 2×10^5 MLE-12 cells were dispensed into each well of a 12-well plate and cultured for 18 to 24 hours. Each well was treated with Example Compound 1 and ferrostatin-1, which were diluted so that their final concentration became 0.01, 0.1, 1, and 10 μM, and culture was performed for 15 minutes. Afterwards, the cells were treated so that the final concentration of RSL3 became 1 μM, and cultured for 2 hours. To confirm the inhibitory effect against cytosolic lipid reactive oxygen species, BODIPY™ 581/591 C11 (lipid peroxidation sensor) [Invitrogen™; D3861] was used. According to the manufacturer's experimental method, BODIPY™ 581/591 C11 was diluted in the cell culture medium so that the final concentration became 5 μM, and the cells were treated therewith and allowed to react for 30 minutes to perform fluorescent staining. The MLE-12 cells fluorescently stained with BODIPY™ 581/591 C11 were detached from the 12-well plate using 0.25% Trypsin-EDTA and transferred to a microtube, and the fluorescence (excitation/absorption 500 to 650 nm/510 to 665 nm) was measured using BD FACSLyric™ to calculate the rate of change compared to the control group.

Experiment [2] concerns NIH/3T3 cells. The experiment is described as follows: Cytosolic lipid ROS after erastin, Experimental Example 3-3. Conditions: NIH/3T3, erastin 3 μM, 6 hr; tested 0.1, 1, 10 μM. Here is the method:
[The source words this procedure for another cell line and says it was used here with some conditions changed.] as §1, with “group. […]” for “group.”

The subject of experiment [3] is MLE-12 cells. The experiment is described as follows: Mitochondrial ROS (MitoSOX) after RSL3. The conditions noted are these: MLE-12, 1 μM RSL3, 2 hours. How it is done:
To confirm the protective effect against mitochondrial reactive oxygen species in lung epithelial cells, 2×10^5 MLE-12 cells were dispensed into each well of a 12-well plate and cultured for 18 to 24 hours. Each well was treated with Example Compound 1 and ferrostatin-1, which were diluted so that their final concentration became 0.01, 0.1, 1, and 10 μM, and culture was performed for 15 minutes. Afterwards, the cells were treated so that the final concentration of RSL3 became 1 μM, and cultured for 2 hours. To confirm the inhibitory effect against mitochondrial reactive oxygen species, MitoSOX™ mitochondrial superoxide indicators (mitochondrial oxidative stress indicator) (MitoSOX) [Invitrogen™; C6827] was used. According to the manufacturer's experimental method, MitoSOX was diluted in the cell culture medium so that the final concentration became 5 μM, and the cells were treated therewith and allowed to react for 30 minutes to perform fluorescent staining. The MLE-12 cells fluorescently stained with MitoSOX were detached from the 12-well plate using 0.25% Trypsin-EDTA and transferred to a microtube, and the fluorescence (excitation/absorption ˜396 nm/610 nm) was measured using BD FACSLyric™ to calculate the rate of change compared to the control group (RSL3 untreated group).

For experiment [4], the system named is PC-12 cells. Briefly: Cytosolic iron ion accumulation (FerroOrange, images) after RSL3. Conditions: PC-12, 0.3 μM RSL3, 1 hour; Example Compound 1 1 μM, DFO 10 or 100 μM. How it is done:
To confirm the inhibitory effect against cytosolic iron ion accumulation in adrenal medulla cells and cardiac cells, 3×10^5 PC-12 cells and H9C2 cells were each dispensed into a 35 mm confocal dish and cultured for 18 to 36 hours. Each well was treated with the Example Compound 1, which was diluted so that the final concentration became 1 μM, and with DFO, which was diluted so that the final concentration became 10 µM and 100 μM, and culture was performed for 20 to 30 minutes. Afterwards, the PC-12 cells and H9C2 cells were each treated with RSL3 and erastin so that their final concentration became 0.3 µM and 1 μM, respectively, and cultured for 1 hour and 7 hours. To confirm the inhibitory effect against cytosolic iron ion accumulation, FerroOrange [DOJINDO; F374] was used. According to the manufacturer's experimental method, FerroOrange was diluted in the cell culture medium so that the final concentration became 1 μM, and the cells were treated therewith. […] The cells fluorescently stained with FerroOrange were observed using a fluorescence microscope [Carl Zeiss; Axio Observer 7] to investigate the change in fluorescence (excitation/absorption 580 nm/543 nm) compared to the control group (RSL3 and erastin untreated group).

Experiment [5] has as its system H9C2 cells. Briefly: Mitochondrial iron ion accumulation (Mito-FerroGreen, images) after erastin. The conditions noted are these: H9C2, erastin 5 μM, 5 hr; Example Compound 1 1 μM, DFO 100 μM. How it is done:
[The source words this procedure for another cell line and says it was used here with some conditions changed.] Experimental Example 9-1: To confirm the inhibitory effect against mitochondrial iron ion accumulation in lung epithelial cells and adrenal medulla cells, 3×10^5 MLE-12 cells and PC-12 cells were each dispensed into a confocal dish and cultured for 18 to 24 hours. Each well was treated with Example Compound 1 and DFO, which were diluted so that their final concentration became 1 μM and 10 μM, respectively, and culture was performed for 20 minutes. Afterwards, the MLE-12 cells were treated with RSL3 so that the final concentration became 1 μM, and cultured for 1 hour and 30 minutes, and the PC-12 cells were treated with RSL3 so that the final concentration became 0.3 μM, and cultured for 30 minutes. To confirm the inhibitory effect against mitochondrial iron ion accumulation, Mito-FerroGreen [DOJINDO; M489] was used. According to the manufacturer's experimental method, Mito-FerroGreen was diluted in the cell culture medium so that the final concentration became 1 μM, and the cells were treated therewith and allowed to react for 30 minutes to perform fluorescent staining. The cells fluorescently stained with Mito-FerroGreen were observed using a fluorescence microscope [Carl Zeiss; Axio Observer 7] to investigate the change in fluorescence (excitation/absorption 450 to 490 nm/500 to 550 nm) compared to the control group (RSL3 untreated group). […]

Experiment [6] concerns H9C2 cells. Briefly: Cell death protection by real-time imaging after erastin. The conditions noted are these: H9C2, erastin 1 μM, compound 0.1 μM, imaged every 3 hours for 24 hours. How it is done:
To confirm a cell death protection effect on cardiac cells through images, 2.5×10^5 H9C2 cells were dispensed into each confocal dish and cultured for 2 days. Each dish was treated with Example Compound 1 and ferrostatin-1, which were diluted to a final concentration of 0.1 μM, and culture was performed for 20 minutes. Afterwards, the cells were treated with erastin so that the final concentration became 1 μM, and images were taken using real-time imaging equipment [Nanolive; CX-A] every 3 hours for 24 hours to confirm changes in the H9C2 cells.

Molecules are shown by their SMILES. Where only a bound is given, the exact number is not on record here.

In the case of `O=S1(=O)CCN(Cc2cc(NC3CCOCC3)c3[nH]c(-c4ccccc4)cc3c2)CC1` [Example 1, 5-[(1,1-dioxido-4-thiomorpholinyl)methyl]-2-phenyl-N-(tetrahydro-2H-pyran-4-yl)-1H-indole-7-amine], the “concentration at which cytosolic lipid reactive oxygen species were significantly decreased” value in experiment [1] worked out at 0.1 µM. Further, in experiment [2], the “concentration at which cytosolic lipid reactive oxygen species were decreased” value worked out at 0.1 µM. In experiment [3], the “concentration at which mitochondrial reactive oxygen species were significantly decreased” value is 0.1 µM. In experiment [4], the “cytosolic iron ion accumulation (images)” value is given as “decrease was confirmed”. Besides, the “mitochondrial iron ion accumulation (images)” value in experiment [5] was “inhibited”. Besides, the “time for which cell death was inhibited” value in experiment [6] is “up to 24 hours”.
Consider `CCOC(=O)c1ccc(NC2CCCCC2)c(N)c1` [Fer-1, ferrostatin-1, reference compound], for which, in experiment [1], the “concentration at which cytosolic lipid reactive oxygen species were significantly decreased” value is 0.1 µM. In experiment [2], the “concentration at which cytosolic lipid reactive oxygen species were decreased” value was 10 µM. Moreover, the “concentration at which mitochondrial reactive oxygen species were significantly decreased” value in experiment [3] was 0.1 µM. In addition, in experiment [6], the “time for which cell death was inhibited” value is “up to 18 hours” and the “time from which cell death was observed” value was no less than 21 h.

For the origin of these results see patent US20240269145A1, “USE OF INDOLE COMPOUND AS INHIBITORS OF FERROPTOSIS” (MITOIMMUNE THERAPEUTICS INC., priority 2023, published 2024).
